Measured values as given in patent US6673899B2, “Sodium ion-driven chloride /bi-carbonate exchanger” (JCR Pharmaceuticals Co., Ltd., priority 2000, dated 2004).

Experiments:
[1] = molecular target: T1, NCBE (Na+-driven Cl-/HCO3- exchanger) (Mus musculus, UniProt Q5DTL9); experiment: 22Na+ uptake in NCBE cRNA-injected Xenopus laevis oocytes; assay type: cell-based
T1 construct: expressed in transfected cells; host or cells: Xenopus laevis oocytes injected with NCBE cRNA (pSD5, SP6 transcript)
T1 sequence (Q5DTL9 1-1088 isoform Q5DTL9-2): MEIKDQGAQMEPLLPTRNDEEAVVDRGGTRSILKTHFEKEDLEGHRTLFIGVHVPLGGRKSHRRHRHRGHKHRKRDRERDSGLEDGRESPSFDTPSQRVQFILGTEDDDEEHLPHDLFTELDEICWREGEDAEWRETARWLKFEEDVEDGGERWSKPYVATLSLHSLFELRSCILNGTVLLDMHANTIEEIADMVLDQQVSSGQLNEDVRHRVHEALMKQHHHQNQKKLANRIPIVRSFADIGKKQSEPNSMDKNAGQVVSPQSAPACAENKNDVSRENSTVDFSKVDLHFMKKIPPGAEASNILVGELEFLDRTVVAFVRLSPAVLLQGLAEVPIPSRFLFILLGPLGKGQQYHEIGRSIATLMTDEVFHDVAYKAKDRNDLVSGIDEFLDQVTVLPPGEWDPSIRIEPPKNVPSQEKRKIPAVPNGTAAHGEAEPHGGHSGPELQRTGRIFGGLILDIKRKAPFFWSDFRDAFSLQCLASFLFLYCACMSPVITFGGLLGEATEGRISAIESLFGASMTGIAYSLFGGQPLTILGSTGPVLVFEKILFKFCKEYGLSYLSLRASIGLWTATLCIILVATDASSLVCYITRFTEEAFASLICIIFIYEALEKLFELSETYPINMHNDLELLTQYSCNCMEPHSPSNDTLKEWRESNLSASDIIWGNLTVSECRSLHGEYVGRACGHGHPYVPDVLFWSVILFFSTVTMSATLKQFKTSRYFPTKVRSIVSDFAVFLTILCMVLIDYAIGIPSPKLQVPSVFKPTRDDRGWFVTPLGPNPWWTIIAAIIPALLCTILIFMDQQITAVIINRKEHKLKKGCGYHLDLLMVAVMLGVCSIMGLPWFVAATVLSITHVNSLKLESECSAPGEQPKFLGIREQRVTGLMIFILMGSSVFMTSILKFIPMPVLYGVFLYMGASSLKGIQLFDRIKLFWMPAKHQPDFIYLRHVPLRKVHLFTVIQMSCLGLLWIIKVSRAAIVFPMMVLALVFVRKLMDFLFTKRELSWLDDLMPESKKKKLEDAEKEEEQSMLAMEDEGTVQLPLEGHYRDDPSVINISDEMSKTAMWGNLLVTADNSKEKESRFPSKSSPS
Description: (§1) The coding sequence of NCBE in pSD5 was linearized by digestion with FspI and in vitro transcribed with SP6 RNA polymerase as previously described (Wang, C -Z. et al., Biochem. Biophys. Res. Commun., 220:196-202(1996)). Defolliculated oocytes were injected with NCBE cRNA (50 nl, 0.5 μg/μl) or water and incubated in 1×MBS medium (88 mM NaCl, 1 mM KCl, 0.8 mM MgCl2, 0.4 mM CaCl2, 0.3 mM Ca(NO3)2, 2.4 mM NaHCO3 and 7.5 mM Tris, pH 7.4) for 3-5 days at 18° C. before the studies. The oocytes were preincubated for one hr at 18° C. in the standard solution (100 mM NaCl, 2 mM KCl, 1 mM MgCl2, 1 mM CaCl2, and 8 mM NaHCO3, pH 7.4).
(§2) For studies of dependency on extracellular Na^+concentration, the oocytes were then incubated in 1.4 ml of either 1, 10, 30 or 100 mM Na^+solution bubbled with 1.5% CO2, pH 7.4 with 0.074 MBq of ^22Na+ (NEN™ Life Science Products, Boston, Mass.). In each solution, the Na^+in the standard solution was substituted with an equal molar amount of choline. A ten μl aliquot was removed from the incubation solution for later determination of ^22Na^+-specific activity. […]
(§3) The present inventors also examined the effect of DIDS, an inhibitor of anion-transporter, on ^22Na^+uptake. Expression was assessed in the absence or presence of 0.3 mM DIDS. […]

water-injected oocytes = experiment: 22Na+ uptake in water-injected Xenopus laevis oocytes (control); assay type: cell-based; conditions: in the presence of 300 μM DIDS, mean ± SE, n=19, 1.6±0.3 in the absence of DIDS
Description: as §1, §2, §3

## O=S(=O)(O)c1cc(N=C=S)ccc1C=Cc1ccc(N=C=S)cc1S(=O)(=O)O [DIDS, 4,4′-diisothiocyanostilbene-2,2′-disulfonic acid]
[1]; 300 μM DIDS, NCBE cRNA-injected oocytes (FIG. 5)
  effect on 22Na+ uptake by NCBE: partially inhibit
[1]; NCBE cRNA-injected oocytes, in the presence of 300 μM DIDS, 15 min, standard solution, mean ± SE, n=14, 31.4±2.1 in the absence of DIDS
  22Na+ uptake: 6.0±0.7 nmol/oocyte/hour
water-injected oocytes
  22Na+ uptake: 2.1±0.4 nmol/oocytes/hour
